Measurements published in patent US20250041624A1, “METHOD FOR ENHANCING ACTIVITY OF PHOTOSENSITIZER BY MAGNETIC FIELD” (PEKING UNIVERSITY, priority 2021, published 2025).
Where “and” joins values, the source holds several entries; their conditions need not be identical. Equal entries are not always repeated. Where two headings read alike, the source gives them in different places.

Key:
[1] = Reaction rate of fluorescent probe SOSG with 1O2 generated by photosensitizer under light and magnetic field; format: physicochemical; settings: for first derivative of the I525 nm−t curve (normalized): RB and SOSG 10 μmol/L in water, 561 nm LED 5 mW·cm−2, time 0
Description: (1) The photosensitizer Rose Bengal (RB) (the purity >98%, available from Saen Chemical Technologies (Shanghai) Ltd. Co., branded as Energy Chemical) and singlet oxygen fluorescent probe (SOSG) are dissolved in water (SOSG available from ThermoFisher Scientific (China) Co., Ltd.). In the resulting solution, the photosensitizer and SOSG are both at a concentration of 10 μmol/L. In a magnetic field with certain strength, the solutions are exposed to a 561 nm LED lamp (light emitting diode) at a power of 5 mW·cm^−2 and tested for fluorescence spectra at 0, 15, 30, 45, 60, 90, 120 and 180 seconds of light exposure, respectively, resulting in emission intensity ([…]) versus time (t) curves. The above fluorescence spectroscopy test is performed at a magnetic field strength of 0, 10, 35, 85, 180, 300 mT, respectively (external magnetic field provided by a neodymium iron boron permanent magnet).
(2) The photosensitizer chlorin e6 (Ce6, Chlorin e6) (available from Saen Chemical Technologies (Shanghai) Ltd. Co., branded as Energy Chemical) and singlet oxygen fluorescent probe (SOSG) are dissolved in water, both with a concentration of 10 μmol/L in the resulting solutions. In a magnetic field with certain strength, the solutions are exposed to a 640 nm LED lamp (light emitting diode) at a power of 5 mW·cm^−2 and tested for fluorescence spectra at 0, 15, 30, 45, 60, 90, 120 and 180 seconds of light exposure, respectively, resulting in emission intensity ([…]) versus time (t) curves. The above fluorescence spectra are tested at a magnetic field strength of 0, 10, 30, 70, 150, 250 mT, respectively.
The external magnetic field is supplied by Neodymium Iron Boron Permanent Magnet. Fluorescence spectra are tested using Edinburg FLS980 Steady State Transient Fluorescence Spectrometer with a detector of PMT R928 and a light source of 450 W ozone-free xenon lamp with excitation wavelength of λex=488 nm.
Under irradiation conditions, photosensitizer is excited to produce singlet oxygen ^1O2, and fluorescent probe SOSG reacts with ^1O2 to give endoperoxide with green fluorescence emission characteristic, with emission wavelength of 525 nm under excitation wavelength conditions of 488 nm. The reaction has a reaction rate of r.
In the present invention, through application of light and a magnetic field, the magnetic field effects (MFEs) is quantified by mfeR, the change rate of the reaction rate r, mfeR=(rB−r0)/r0×100%, where r0 is the reaction rate at a magnetic field strength of 0 mT and rB is the reaction rate at a magnetic field strength of B mT. Where the reaction rate (r) is proportional to the slope of the tangent of a curve (first derivative of the curve) of the emission intensity (I525 nm) versus time (t). Under magnetic field strengths of 0, 10, 35, 85, 180, 300 mT and from the time of starting to illuminate and place in magnetic field (the time recorded as 0), the first derivative of the I525 nm−t curve is 1, 1.05, 1.09, 0.99, 1.12, 1.14 (normalized).

[2] = test system: HeLa cells; assay: CCK-8 cell viability of HeLa cells under light and magnetic field; format: cell-based; settings: for CV(%) (cell viability): final concentration of photosensitizer 30 mol/L (so in the source), light 10 min; for mfe(CV)(%) =(CV0−CVB)/CV0×100%: photosensitizer 30 mol/L (so in the source); for IC50: white light 400-700 nm 5 mW·cm−2, 10 min, read-out: RB Half inhibitory concentration
Description: (1) Appropriate amounts of HeLa cells are added to DMEM medium (Corning, USA, high glycoform, with glucose concentration […] 4.5 g/L), and then appropriate amounts of 10 wt % fetal bovine serum (FBS), 1 wt % penicillin and streptomycin are added. Cells are cultured at 37° C. in humidified air with 5% (volume fraction) CO2 for 2 days.
The above Hela cells (2×10^3/well) are seeded in 96-well plates for 24 h without light. 100 μL medium and 100 μL aqueous solution of RB with concentrations of 80, 40, 20, 10, 5 μmol/L or 100 μL 0.01 mol/L PBS buffer (phosphate buffered saline) are added respectively, and treated for 24 h, thereafter the cells are washed 3 times with PBS buffer.
DMEM (comprising FBS) medium is added to the 96-well plates for 24 hours in the absence of light. An additional 10 μL of Cell Counting Kit-8 (CCK-8 kit) (Beyotime Biotechnology Co. Ltd.) and 90 μL of DMEM are added to each well, and the light and magnetic field strength are controlled for a subsequent incubation of 30 minutes. The absorbance at 450 nm is read using a microplate reader. Cell Viability (CV) of Hela cells is calculated using the following equation: […]
Where As is the absorbance of HeLa cells comprising photosensitizer (PS), Ac is the absorbance of Hela cells without PS and Ab is the absorbance of those without PS and HeLa cells.
The change rate of half inhibitory concentration, mfeP (Cell Viability (%)) is obtained as follows: mfeP=(IC50,0−IC50,B)/IC50,B×100%, where IC50,0 is half inhibitory concentration at magnetic field strength of 0 mT and IC50,B is half inhibitory concentration at magnetic field strength of B.
Under white light with lighting conditions of 400-700 nm, the power of 5 mW·cm^−2, test is carried out in a magnetic field with strengths of 0-800 mT, and the irradiation and the magnetic field perform for 10 min. The results of the test calculations for mfeP (Cell Viability (%)) at different concentrations of RB and each magnetic field strength are shown in FIG. 8. The RB half inhibitory concentration μmol/L at magnetic field strength of B calculated by logistic regression model fitting according to FIG. 8 are shown in Table 2 below.
In above experiment, with final concentration of photosensitizer of 30 mol/L, CV (%) and mfe (CV) (%) measured and calculated at each magnetic field strength are specifically shown in Table 3, where mfe(CV)=(CV0−CVB)/CV0×100%.

## O=C1OC2(c3cc(I)c(O)c(I)c3Oc3c2cc(I)c(O)c3I)c2c(Cl)c(Cl)c(Cl)c(Cl)c21 [RB, Rose Bengal]
[1]; MF 0 mT
  first derivative of the I525 nm−t curve (normalized): 1
[1]; MF 10 mT
  first derivative of the I525 nm−t curve (normalized): 1.05
[1]; MF 35 mT
  first derivative of the I525 nm−t curve (normalized): 1.09
[1]; MF 85 mT
  first derivative of the I525 nm−t curve (normalized): 0.99
[1]; MF 180 mT
  first derivative of the I525 nm−t curve (normalized): 1.12
[1]; MF 300 mT
  first derivative of the I525 nm−t curve (normalized): 1.14
[1]; peak, MF 250 mT vs 0 mT, FIG. 1
  mfer (change rate of reaction rate r of SOSG with 1O2): 25%
[2]; MF 14 mT vs 0 mT
  mfeP (Cell Viability(%), change rate of half inhibitory concentration): −21% and −21.5%
[2]; MF 40 mT vs 0 mT
  mfeP (Cell Viability(%), change rate of half inhibitory concentration): 8.1%
[2]; MF 90 mT vs 0 mT
  mfeP (Cell Viability(%), change rate of half inhibitory concentration): 13.3%
[2]; MF 150 mT vs 0 mT
  mfeP (Cell Viability(%), change rate of half inhibitory concentration): 14.8%
[2]; MF 250 mT vs 0 mT
  mfeP (Cell Viability(%), change rate of half inhibitory concentration): 22.4%
[2]; MF 575 mT vs 0 mT
  mfeP (Cell Viability(%), change rate of half inhibitory concentration): 22.1%
[2]; MF 700 mT vs 0 mT
  mfeP (Cell Viability(%), change rate of half inhibitory concentration): −11.1%
[2]; MF 800 mT vs 0 mT
  mfeP (Cell Viability(%), change rate of half inhibitory concentration): −58%
[2]; MF 0 mT
  CV(%) (cell viability): 71.1 ± 0.5%
  mfe(CV)(%) =(CV0−CVB)/CV0×100%: 0%
  IC50: 34.2 ± 1.7 µM
[2]; MF 14 mT
  CV(%) (cell viability): 89.8 ± 4.2%
  mfe(CV)(%) =(CV0−CVB)/CV0×100%: −26.3%
  IC50: 41.6 ± 1.4 µM
[2]; MF 150 mT
  CV(%) (cell viability): 72.5 ± 3.2%
  mfe(CV)(%) =(CV0−CVB)/CV0×100%: −1.97%
  IC50: 29.2 ± 0.6 µM
[2]; MF 250 mT
  CV(%) (cell viability): 59.9 ± 2.6%
  mfe(CV)(%) =(CV0−CVB)/CV0×100%: 15.8%
  IC50: 26.6 ± 0.3 µM
[2]; MF 400 mT
  CV(%) (cell viability): 42.3 ± 6.7%
  mfe(CV)(%) =(CV0−CVB)/CV0×100%: 40.5%
  IC50: 26.1 ± 0.8 µM
[2]; MF 575 mT
  CV(%) (cell viability): 74.1 ± 0.6%
  mfe(CV)(%) =(CV0−CVB)/CV0×100%: −4.2%
  IC50: 26.7 ± 1.9 µM
[2]; MF 700 mT
  CV(%) (cell viability): 78.3 ± 3.2%
  mfe(CV)(%) =(CV0−CVB)/CV0×100%: −10.13%
  IC50: 38 ± 1.1 µM
[2]; MF 800 mT
  CV(%) (cell viability): 83.0 ± 0.5%
  mfe(CV)(%) =(CV0−CVB)/CV0×100%: −16.7%
  IC50: 54.1 ± 0.8 µM
[2]; MF 40 mT
  IC50: 31.5 ± 1 µM
[2]; MF 90 mT
  IC50: 29.7 ± 0.7 µM
